Results on 36 compounds are retold here after patent US7511061B2, “Triazoles as farnesyl transferase inhibitors” (Janssen Pharmaceutica N.V., priority 1999, dated 2009).

Series [1] concerns HeLa cells. In kind it is cell-based. Conditions: human, 7 days. The source says:
(§1) The percent protection against cytopathology caused by viruses (antiviral activity or IC50) achieved by tested compounds and their cytotoxicity (CC50) were both calculated from dose-response curves. The selectivity of the antiviral effect is represented by the selectivity index (SI), calculated by dividing the CC50 (cytotoxic dose for 50% of the cells) by the IC50 (antiviral activity for 50% of the cells).
(§2) Automated tetrazolium-based […] assays were used for determination of IC50 and CC50 of test compounds. Flat-bottom, 96-well plastic microtiter trays were filled with 180 μl of Eagle's Basal Medium, supplemented with 5% FCS (0% for FLU) and 20 mM Hepes buffer. Subsequently, stock solutions (7.8× final test concentration) of compounds were added in 45 μl volumes to a series of triplicate wells so as to allow simultaneous evaluation of their effects on virus- and mock-infected cells. Five five-fold dilutions were made directly in the microtiter trays using a robot system. Untreated virus controls, and HeLa cell controls were included in each test. Approximately 100 TCID50 of Respiratory Syncytial Virus was added to two of the three rows in a volume of 50 μl. The same volume of medium was added to the third row to measure the cytotoxicity of the compounds at the same concentrations as those used to measure the antiviral activity. After two hours of incubation, a suspension (4×10^5 cells/ml) of HeLa cells was added to all wells in a volume of 50 μl. The cultures were incubated at 37° C. in a 5% CO2 atmosphere. Seven days after infection the cytotoxicity and the antiviral activity was examined spectrophotometrically. To each well of the microtiter tray, 25 μl of a solution of MTT (3-(4,5-dimethylthiazol-2-yl)-2,5-diphenyltetrazolium bromide) was added. The trays were further incubated at 37° C. for 2 hours, after which the medium was removed from each cup. Solubilization of the formazan crystals was achieved by adding 100 μl 2-propanol. Complete dissolution of the formazan crystals were obtained after the trays have been placed on a plate shaker for 10 min. Finally, the absorbances were read in an eight-channel computer-controlled photometer (Multiskan MCC, Flow Laboratories) at two wavelengths (540 and 690 nm). The absorbance measured at 690 nm was automatically subtracted from the absorbance at 540 nm, so as to eliminate the effects of non-specific absorption.

For series [2], the system named is Respiratory Syncytial Virus. As to the kind of experiment: In vitro screening for activity against Respiratory Syncytial Virus (MTT assay, protection against cytopathology). It is filed as cell-based. As to conditions: for SI (selectivity index, CC50 divided by IC50): RSV, HeLa cells; for IC50: human respiratory syncytial virus, 168 h, RSV-infected HeLa cells, seven days after infection, MTT, read-out: IC50 (antiviral activity).
Text: as §1, §2
(In general: Formazan colour is commonly taken as a measure of viable cells.)

Series [3] concerns the target farnesyl protein transferase (FPTase) (Homo sapiens, UniProt P49354+P49356). The experiment in a line: In vitro assay for inhibition of farnesyl protein transferase. As to conditions: test dose of 10^−7 M. In kind it is biochemical. On the procedure:
An in vitro assay for inhibition of farnesyl transferase was performed essentially as described in WO 98/40383, pages 33-34.

With `Cc1ccc(CCN(Cc2ccc3ccccc3n2)Cc2nncn2Cc2ccc(C#N)cc2)cc1` [compound 46], the “CC50 (cytotoxic dose for 50% of the cells)” value in series [1] stood at 7.06 µM. Besides, in series [2], the “SI (selectivity index, CC50 divided by IC50)” value came out at 758 and the IC50 stood at 0.0881 µM. For `N#Cc1ccc(Cn2cnnc2CN(CCc2ccc(Br)cc2)Cc2ccc3cccc(O)c3n2)cc1` [compound 155], in that order: 6.80 µM, 99 and 0.16 µM. For `COC(=O)c1ccc(Cn2cnnc2CN(CCc2ccc(Br)cc2)Cc2ccc3ccccc3n2)cc1` [compound 90], in that order: 7.59 µM, 1988 and 0.0259 µM. For `N#Cc1ccc(Cn2cnnc2CN(CCc2ccc(Cl)cc2Cl)Cc2ccc3ccccc3n2)cc1` [compound 114], in that order: 6.93 µM, 337 and 0.118 µM. Take `Brc1ccc(CCN(Cc2ccc3ccccc3n2)Cc2nncn2Cc2ccc(Br)cc2)cc1` [compound 92]: in series [1], the “CC50 (cytotoxic dose for 50% of the cells)” value was 6.82 µM. Also, in series [2], the “SI (selectivity index, CC50 divided by IC50)” value was found to be 147 and the half-inhibitory concentration (IC50) is 0.15 µM.

Regarding `Clc1ccc(Cn2cnnc2CN(CCc2ccc(Br)cc2)Cc2ccc3ccccc3n2)cc1` [compound 157], the “CC50 (cytotoxic dose for 50% of the cells)” value in series [1] is 7.03 µM. For the same compound, in series [2], the “SI (selectivity index, CC50 divided by IC50)” value is listed as 272 and the half-maximal inhibitory concentration (IC50) is 0.0931 µM. For `Fc1ccc(Cn2cnnc2CN(CCc2ccc(Br)cc2)Cc2ccc3ccccc3n2)cc1` [compound 97], in that order: 7.10 µM, 322 and 0.08 µM. Consider `N#Cc1ccc(Cn2cnnc2CN(Cc2ccc(F)cc2F)C(=O)c2ccc3ccccc3n2)cc1` [compound 300], for which, in series [3], the inhibition at 0.1 µM is no less than 10%. The compound `N#Cc1ccc(Cn2cnnc2CN(Cc2ccc(F)cc2F)C(=O)c2ccc(-c3ccc(F)c(Cl)c3)o2)cc1` [compound 272] registered an inhibition at 0.1 µM in series [3] of no less than 10%. On the same count and under the same terms, the value for `N#Cc1ccc(Cn2cnnc2CN(Cc2ccc(F)cc2F)C(=O)c2cc3ccccc3o2)cc1` [compound 299] was no less than 10%; that for `N#Cc1ccc(Cn2cnnc2CN(Cc2ccc(F)cc2F)C(=O)/C=C/c2cccc(Br)c2)cc1` [compound 241] was no less than 10%. For the compound `N#Cc1ccc(Cn2cnnc2CN(Cc2ccc(F)cc2F)C(=O)c2ccc3ccccc3n2)nc1` [compound 295], the inhibition at 0.1 µM in series [3] is no less than 10%.

In series [3], `N#Cc1ccc(Cn2cnnc2CN(CCc2ccc(F)cc2)C(=O)c2ccc3ccccc3n2)cc1` [compound 276] had an inhibition at 0.1 µM of no less than 10%. Still for that read-out and setting: the value for `N#Cc1ccc(Cn2cnnc2CN(c2ccc(Oc3ccccc3)cc2)c2nccc(C(F)(F)F)n2)cc1` [compound 257] was no less than 10%; that for `Cc1ccc(C(=O)N(Cc2ccc(F)cc2F)Cc2nncn2Cc2ccc(C#N)cc2)cc1C` [compound 262] was no less than 10%. `N#Cc1ccc(Cn2cnnc2CN(Cc2ccc(F)cc2F)C(=O)c2cccc(-c3ccsc3)c2)cc1` [compound 239] yielded an inhibition at 0.1 µM in series [3] of no less than 10%. Compound `N#Cc1ccc(Cn2cnnc2CN(Cc2ccc(F)cc2F)C(=O)c2ccc(-c3cc(Cl)cc(Cl)c3)o2)cc1` [compound 296] displayed an inhibition at 0.1 µM in series [3] of no less than 10%. On the same count and under the same terms, under `N#Cc1ccc(Cn2cnnc2CN(Cc2ccc(F)cc2F)C(=O)c2ccc(OC(F)(F)F)c(Cl)c2)cc1` [compound 293] stands no less than 10%; under `N#Cc1ccc(Cn2cnnc2CN(Cc2ccc(F)cc2F)C(=O)/C=C/c2ccccc2Cl)cc1` [compound 249], no less than 10%; under `COc1cc(Cn2cnnc2CN(Cc2ccc(F)cc2F)C(=O)c2ccc3ccccc3n2)ccc1[N+](=O)[O-]` [compound 290], no less than 10%. In series [3], `N#Cc1ccc(Cn2cnnc2CN(CCc2ccc(Br)cc2)C(=O)c2cc3ccccc3s2)cc1` [compound 223] displayed an inhibition at 0.1 µM of no less than 10%. In series [3], `Cc1ccc(C(=O)N(Cc2ccc(F)cc2F)Cc2nncn2Cc2ccc(C#N)cc2)cc1Br` [compound 309] registered an inhibition at 0.1 µM of no less than 10%. Same read-out and setting: the value for `N#Cc1ccc(Cn2cnnc2CN(Cc2ccc(F)cc2F)C(=O)c2ccc(-c3cccc(C(F)(F)F)c3)o2)cc1` [compound 292] was no less than 10%. For `Cc1cccc(C(=O)N(Cc2ccc(F)cc2F)Cc2nncn2Cc2ccc(C#N)cc2)c1` [compound 253], in series [3], the inhibition at 0.1 µM is no less than 10%. Same read-out and setting: under `Cc1nnc(CN(Cc2ccc(F)cc2F)C(=O)c2ccc3ccccc3n2)n1Cc1ccc(C#N)cc1` [compound 311] stands no less than 10%; under `O=C(c1ccc2ccccc2n1)N(Cc1ccc(F)cc1F)Cc1nncn1Cc1ccc([N+](=O)[O-])cc1` [compound 273], no less than 10%; under `N#Cc1ccc(Cn2cnnc2CN(Cc2ccc(F)cc2F)C(=O)/C=C/c2ccc(Cl)c(Cl)c2)cc1` [compound 250], no less than 10%. Turning to `Brc1ccc(CCN(Cc2ccc3ccccc3n2)Cc2nncn2Cc2ccccc2)cc1` [compound 101], the “CC50 (cytotoxic dose for 50% of the cells)” value in series [1] is 6.89 µM. In addition, in series [2], the “SI (selectivity index, CC50 divided by IC50)” value was 196 and the IC50 stood at 0.128 µM. `N#Cc1ccc(Cn2cnnc2CN(Cc2ccc(F)cc2F)C(=O)c2cccc(Br)n2)cc1` [compound 285] returned an inhibition at 0.1 µM in series [3] of no less than 10%. The compound `N#Cc1ccc(Cn2cnnc2CN(Cc2ccc(F)cc2F)C(=O)c2cccc(Cl)c2)cc1` [compound 246] had an inhibition at 0.1 µM in series [3] of no less than 10%. Same read-out and setting: under `N#Cc1ccc(Cn2cnnc2CN(Cc2ccc(F)cc2F)C(=O)c2cccc(Cl)n2)cc1` [compound 279] stands no less than 10%. On the same count and under the same terms, the value for `N#Cc1ccc(Cn2cnnc2CN(Cc2ccc(F)cc2F)C(=O)c2cc3ccccc3oc2=O)cc1` [compound 252] was no less than 10%. Regarding `N#Cc1cccc(Cn2cnnc2CN(CCc2ccc(Br)cc2)Cc2ccc3ccccc3n2)c1` [compound 102], the “CC50 (cytotoxic dose for 50% of the cells)” value in series [1] worked out at 7.08 µM. In series [2], the “SI (selectivity index, CC50 divided by IC50)” value is 793 and the IC50 was 0.0824 µM. As for `N#Cc1ccc(Cn2cnnc2CN(Cc2ccccc2F)C(=O)c2ccc3ccccc3n2)cc1` [compound 306], the inhibition at 0.1 µM in series [3] was no less than 10%. Regarding `N#Cc1ccc(Cn2cnnc2CN(Cc2ccc(F)cc2F)C(=O)c2cccc(-c3cc(Cl)cc(Cl)c3)c2)cc1` [compound 283], the inhibition at 0.1 µM in series [3] was no less than 10%. The same measure, in the same setting: the value for `N#Cc1ccc(Cn2cnnc2CN(CCc2ccc(Cl)cc2)C(=O)c2ccc3ccccc3n2)cc1` [compound 264] was no less than 10%.

A word on the IC50: it is the concentration needed to halve the response being measured. The term inhibition denotes how much of the control response was suppressed. Low readings indicate little suppression, high ones strong suppression.
